Reference: patent US12378227B2, “Therapeutic cocrystals of 3-{[5-(azetidine-1-ylcarbonyl)pyrazin-2-yl]oxy}-5-{[(1S)-1-methyl-2-(methyloxy)ethyl]oxy)-N-(5-methylpyrazin-2-yl)benzamide” (CONDUIT UK MANAGEMENT LTD, priority 2021, dated 2025)

Tests used:
[1] = Dry milling in ball mill, assessed by eye and by XRPD; type: physicochemical; details: dry milled, Retsch MM400 ball mill, 2×15 min at 30 Hz, stainless-steel jar
From the text: In order to prepare cocrystal samples of similar particle size for a dissolution study and to assess the impact of milling on the crystallinity of the cocrystals, Cocrystal 1, Cocrystal 2, Cocrystal 3, Cocrystal 4 and Cocrystal 5a were dry milled using a ball mill. WO 2012/007758 discloses that to achieve satisfactory dissolution of the benzamide compound particle size reduction was required. […] Thus, a solid form of the benzamide compound that could undergo particle size reduction with an efficient recovery rate without the need to use a co-milling excipient is beneficial. The milled cocrystals, Cocrystal 1, Cocrystal 2, Cocrystal 3, Cocrystal 4 and Cocrystal 5a, were therefore assessed by eye for any potential agglomeration issues or excessive sticking to the walls of the milling vessel that might indicate potential adhesion/cohesion issues such as those of the pure benzamide compound.
200 mg each of Cocrystal 1, Cocrystal 2, Cocrystal 3, Cocrystal 4 and Cocrystal 5a were separately placed in a 25 ml stainless-steel milling jar containing a 1 cm stainless steel ball bearing. Each benzamide cocrystal of the invention was dry milled in a Retsch MM400 ball mill for 2×15 min at 30 Hz. The product was assessed by eye and by XRPD.

[2] = Solid-state stability study, ambient conditions, 12 months; type: physicochemical; details: clear glass vial
Procedure: A second stability study was carried out where 50 mg each of Cocrystal 1, Cocrystal 2, Cocrystal 3, Cocrystal 4, and Cocrystal 5A were separately placed in a clear glass vial which was then stored under ambient conditions for 12 months. After this time all the cocrystals remained as white solids with no signs of colour change.

[3] = Polymorphism study (preparation methods 1 and 2 in different solvents); type: physicochemical; details: methods 1 and 2 using 2-propanol, ethyl acetate, acetonitrile, methyl ethyl ketone and water
Procedure: (§1) As AZD1656 is known to exist in six different crystalline forms an investigation was carried out to examine whether Cocrystal 1 could also exist in multiple polymorphic forms. Preparation methods 1 and 2 described above were carried out using 2-propanol, ethyl acetate, acetonitrile, methyl ethyl ketone and water.
as §1, with “Cocrystal 2” for “Cocrystal 1”

[4] = Solid-state stability study, accelerated storage 40° C./75% RH, 3 months; type: physicochemical; details: sealed container
Procedure: A study was carried out to examine the physical stability of the benzamide cocrystals of the invention with respect to solid form conversion or signs of decomposition over time under both ambient and accelerated conditions. 50 mg each of Cocrystal 1, Cocrystal 2, Cocrystal 4, and Cocrystal 5A were separately placed in a sealed container at 40° C. and 75% relative humidity and stored under these conditions for 3 months. After this time all samples remained unchanged in appearance with no signs of deliquescence and no signs of any colour change.

[5] = pure benzamide compound, as disclosed in WO 2012/007758; cited from earlier work

Row | SMILES | Powder flow / agglomeration after milling (by eye) [1] | Recoverability from milling chamber / adhesion to walls (by eye) [1] | Signs of loss of crystallinity due to milling (XRPD) [1] | Appearance [2] | XRPD analysis (form change) [2] | Polymorphic forms obtained [3] | Appearance [4] | XRPD analysis (form change) [4] | Adhesion on dry milling [5]
1 | COC[C@H](C)Oc1cc(Oc2cnc(C(=O)N3CCC3)cn2)cc(C(=O)Nc2cnc(C)cn2)c1.O=C(O)/C=C/C(=O)O [Cocrystal 1, 1:1 benzamide fumaric acid] | free-flowing powder with no obvious signs of agglomeration | easily recoverable from the milling chamber with no excessive adhesion to the walls of the milling jar | None | No change | No change | single polymorphic form | No change | No change | 
2 | COC[C@H](C)Oc1cc(Oc2cnc(C(=O)N3CCC3)cn2)cc(C(=O)Nc2cnc(C)cn2)c1.O=C(O)/C=C\C(=O)O [Cocrystal 2, 1:1 benzamide maleic acid] | free-flowing powder with no obvious signs of agglomeration | easily recoverable from the milling chamber with no excessive adhesion to the walls of the milling jar | None | No change | No change | single polymorphic form | No change | No change | 
3 | COC[C@H](C)Oc1cc(Oc2cnc(C(=O)N3CCC3)cn2)cc(C(=O)Nc2cnc(C)cn2)c1.O=C(O)CC(=O)O [Cocrystal 3, 1:1 benzamide malonic acid] | free-flowing powder with no obvious signs of agglomeration | easily recoverable from the milling chamber with no excessive adhesion to the walls of the milling jar | None | No change | No change |  |  |  | 
4 | COC[C@H](C)Oc1cc(Oc2cnc(C(=O)N3CCC3)cn2)cc(C(=O)Nc2cnc(C)cn2)c1.O.O=C(O)C(O)C(O)C(=O)O [Cocrystal 4, 1:1 benzamide L-tartaric acid hydrate] | free-flowing powder with no obvious signs of agglomeration | easily recoverable from the milling chamber with no excessive adhesion to the walls of the milling jar | None | No change | No change |  | No change | No change | 
5 | COC[C@H](C)Oc1cc(Oc2cnc(C(=O)N3CCC3)cn2)cc(C(=O)Nc2cnc(C)cn2)c1.O=C(O)c1cc(O)ccc1O [Cocrystal 5A, 1:1 benzamide gentisic acid form 1] | free-flowing powder with no obvious signs of agglomeration | easily recoverable from the milling chamber with no excessive adhesion to the walls of the milling jar | None | No change | No change |  | No change | No change | 
6 | COC[C@H](C)Oc1cc(Oc2cnc(C(=O)N3CCC3)cn2)cc(C(=O)Nc2cnc(C)cn2)c1 [benzamide compound, 3-{[5-(azetidine-1-ylcarbonyl)pyrazin-2-yl]oxy}-5-{[(1S)-1-methyl-2-(methyloxy)ethyl]oxy}-N-(5-methylpyrazin-2-yl)benzamide] |  |  |  |  |  |  |  |  | excessive adhesion to the stainless-steel walls of the milling vessel resulting in low recovery yields
